What all share (assay type): cell-based
Test [1] has as its target T1, human muscarinic M2 receptor (Homo sapiens, UniProt P08172).
T1 sequence (P08172 1-466): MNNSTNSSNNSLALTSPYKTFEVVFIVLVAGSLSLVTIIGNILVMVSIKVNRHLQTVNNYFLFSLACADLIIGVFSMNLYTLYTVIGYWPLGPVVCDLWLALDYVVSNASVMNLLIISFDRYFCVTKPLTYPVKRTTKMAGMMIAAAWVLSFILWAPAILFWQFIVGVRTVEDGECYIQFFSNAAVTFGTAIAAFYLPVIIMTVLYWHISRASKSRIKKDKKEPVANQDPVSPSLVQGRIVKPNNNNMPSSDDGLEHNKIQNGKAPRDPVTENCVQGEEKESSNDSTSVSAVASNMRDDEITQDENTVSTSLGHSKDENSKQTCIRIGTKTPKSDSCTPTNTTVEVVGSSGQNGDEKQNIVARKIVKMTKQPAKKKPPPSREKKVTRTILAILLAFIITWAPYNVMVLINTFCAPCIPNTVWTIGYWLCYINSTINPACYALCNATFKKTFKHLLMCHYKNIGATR
Briefly: Phospho-ERK1/2 assay, muscarinic M2. Particulars: for EC50: CHO cells expressing human M2, phospho-ERK1/2 Alphascreen, read-out: pEC50 M2 (converted); for Emax: CHO, read-out: % Emax cf. ACh (M2). The method, then: (§1) Functional assays were performed using the Alphascreen Surefire phospho-ERK1/2 assay (Crouch & Osmond, Comb. Chem. High Throughput Screen, 2008). ERK1/2 phosphorylation is a downstream consequence of both Gq/11 and Gi/o protein coupled receptor activation, making it highly suitable for the assessment of M1, M3 (Gq/11 coupled) and M2, M4 receptors (Gi/o coupled), rather than using different assay formats for different receptor subtypes. CHO cells stably expressing the human muscarinic M1, M2, M3 or M4 receptor were plated (25K/well) onto 96-well tissue culture plates in MEM-alpha+10% dialysed FBS. Once adhered, cells were serum-starved overnight. Agonist stimulation was performed by the addition of 5 μL agonist to the cells for 5 min (37° C.). Media was removed and 50 μL of lysis buffer added. After 15 min, a 4 μL sample was transferred to 384-well plate and 7 μL of detection mixture added. Plates were incubated for 2 h with gentle agitation in the dark and then read on a PHERAstar plate reader.
(§2) pEC50 and Emax figures were calculated from the resulting data for each receptor subtype.
Background: Alpha assays give light when donor and acceptor beads are brought close together.

The target of test [2] is T2, human muscarinic M4 receptor (Homo sapiens, UniProt P08173).
T2 construct: expressed in transfected cells
T2 sequence (P08173 1-479): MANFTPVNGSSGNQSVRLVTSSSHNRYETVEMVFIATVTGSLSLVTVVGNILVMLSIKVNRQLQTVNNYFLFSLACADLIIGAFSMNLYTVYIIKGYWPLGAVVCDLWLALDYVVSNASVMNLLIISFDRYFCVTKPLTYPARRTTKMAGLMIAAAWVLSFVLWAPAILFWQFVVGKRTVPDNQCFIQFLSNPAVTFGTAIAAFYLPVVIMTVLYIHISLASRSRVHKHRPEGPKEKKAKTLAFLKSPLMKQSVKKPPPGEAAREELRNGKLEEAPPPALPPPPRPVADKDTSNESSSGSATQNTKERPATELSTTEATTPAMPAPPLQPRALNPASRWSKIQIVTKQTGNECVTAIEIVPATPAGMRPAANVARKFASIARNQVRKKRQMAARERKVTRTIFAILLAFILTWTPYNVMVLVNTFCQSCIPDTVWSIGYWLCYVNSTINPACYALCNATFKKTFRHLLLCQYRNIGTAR
Briefly: Phospho-ERK1/2 assay, muscarinic M4. Particulars: for EC50: CHO cells expressing human M4, phospho-ERK1/2 Alphascreen, read-out: pEC50 M4 (converted); for Emax: CHO, read-out: % Emax cf. ACh (M4). Here is the method: as §1, §2

Test [3] deals with T3, human muscarinic M1 receptor (Homo sapiens, UniProt P11229).
T3 sequence (P11229 1-460): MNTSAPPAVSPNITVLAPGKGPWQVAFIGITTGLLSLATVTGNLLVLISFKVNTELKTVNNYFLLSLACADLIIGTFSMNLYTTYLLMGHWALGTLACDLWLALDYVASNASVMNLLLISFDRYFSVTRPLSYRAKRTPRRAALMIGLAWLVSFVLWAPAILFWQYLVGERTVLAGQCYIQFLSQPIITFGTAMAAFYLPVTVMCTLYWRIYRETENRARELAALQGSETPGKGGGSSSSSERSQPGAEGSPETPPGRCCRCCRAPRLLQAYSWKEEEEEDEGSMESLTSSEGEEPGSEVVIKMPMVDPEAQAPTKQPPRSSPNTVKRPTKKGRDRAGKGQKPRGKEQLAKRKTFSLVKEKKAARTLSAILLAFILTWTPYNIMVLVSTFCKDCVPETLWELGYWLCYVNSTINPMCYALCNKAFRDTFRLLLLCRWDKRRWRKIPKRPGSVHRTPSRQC
Briefly: Phospho-ERK1/2 assay, muscarinic M1. Particulars: for EC50: CHO cells expressing human M1, phospho-ERK1/2 Alphascreen, read-out: pEC50 M1 (converted); for Emax: CHO, read-out: % Emax cf. ACh (M1). The method, then: as §1, §2

The target in test [4] is T4, human muscarinic M3 receptor (Homo sapiens, UniProt P20309).
T4 construct: expressed in transfected cells
T4 sequence (P20309 whole entry): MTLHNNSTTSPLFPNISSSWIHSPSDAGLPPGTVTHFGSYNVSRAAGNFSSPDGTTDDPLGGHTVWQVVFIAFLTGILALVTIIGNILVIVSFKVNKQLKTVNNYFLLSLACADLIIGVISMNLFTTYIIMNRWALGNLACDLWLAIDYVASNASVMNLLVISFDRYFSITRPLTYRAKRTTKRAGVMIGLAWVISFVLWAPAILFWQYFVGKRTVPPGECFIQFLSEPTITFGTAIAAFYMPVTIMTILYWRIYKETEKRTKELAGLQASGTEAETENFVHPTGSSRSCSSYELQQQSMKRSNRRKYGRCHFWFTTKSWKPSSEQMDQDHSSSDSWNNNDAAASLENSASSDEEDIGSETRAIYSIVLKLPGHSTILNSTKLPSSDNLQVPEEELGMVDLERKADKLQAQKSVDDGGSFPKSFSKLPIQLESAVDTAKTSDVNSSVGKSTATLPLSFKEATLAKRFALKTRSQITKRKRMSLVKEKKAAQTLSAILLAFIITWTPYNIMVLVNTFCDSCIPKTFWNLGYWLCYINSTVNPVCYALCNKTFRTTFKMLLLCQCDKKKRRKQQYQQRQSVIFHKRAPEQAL
Briefly: Phospho-ERK1/2 assay, muscarinic M3. Particulars: for EC50: CHO cells expressing human M3, phospho-ERK1/2 Alphascreen, read-out: pEC50 M3 (converted); for Emax: CHO, read-out: % Emax cf. ACh (M3). The method, then:
as §1, §2

Bounds are passed on as bounds.

For `CCOC(=O)N1CCCC(N2CCC(C)(C(=O)NC3(C)CCC3)CC2)CC1` (stereo not shown) [Example 78, ethyl 4-{4-methyl-4-[(1-methylcyclobutyl)carbamoyl]piperidin-1-yl}azepane-1-carboxylate], the EC50 in test [1] is over 20000 nM; in test [2], 417 nM; in test [3], 42.7 nM; in test [4], over 20000 nM. Moreover, the Emax – broadly, the maximal effect, on the per cent scale that the assay sets – worked out at 5% in test [1], 51% in test [2], 115% in test [3] and 0% in test [4].
For the molecule `CCOC(=O)N1CCCC(N2CCC(C#N)(C(=O)NC3(C)CCC3)CC2)CC1` (stereo not shown) [Example 82, ethyl 4-{4-cyano-4-[(1-methylcyclobutyl)carbamoyl]piperidin-1-yl}azepane-1-carboxylate], the EC50 in test [1] was over 20000 nM; in test [2], 1620 nM; in test [3], 55 nM; in test [4], over 20000 nM. Besides, the maximal effect (Emax) was 16% in test [1], 81% in test [2], 89% in test [3] and 2% in test [4].
As to `CCOC(=O)N1CCCC(N2CCC(C(=O)NC(C)(C)C)CC2)CC1` (stereo not shown) [Example 7, ethyl 4-(4-((1,1-dimethylethyl)carbamoyl)piperidin-1-yl)azepane-1-carboxylate], the EC50 in test [1] is over 20000 nM; in test [2] it was 191 nM; in test [3] it was 81.3 nM; in test [4], over 20000 nM. The maximal effect (Emax) in test [1] was determined as 2%; in test [2], 80%; in test [3], 111%; in test [4], 14%.
With `CCOC(=O)N1CCCC(N2CCC(C(=O)NC3(C)CCCCC3)CC2)CC1` (stereo not shown) [Example 17, ethyl 4-(4-((1-methylcyclohexyl)carbamoyl)piperidin-1-yl)azepane-1-carboxylate], the EC50 is over 20000 nM in test [1], 724 nM in test [2], 61.7 nM in test [3] and over 20000 nM in test [4]. Further, the Emax in test [1] is 0%; in test [2], 46%; in test [3], 104%; in test [4], 5%.
Consider `CCOC(=O)N1CCC(N2CCC(C(=O)NC(C)(C)C(C)C)CC2)CC1` [Example 3], for which the EC50 in test [1] is over 20000 nM; in test [2], 562 nM; in test [3] it was 200 nM; in test [4] it was over 20000 nM. For the same molecule, the Emax in test [1] was 6%; in test [2] it was 85%; in test [3], 116%; in test [4], 4%.
For `CCOC(=O)N1CCCC(N2CCC(C(=O)NC3CCCC3)CC2)CC1` (stereo not shown) [Example 30, ethyl 4-(4-(cyclopentylcarbamoyl)piperidin-1-yl)azepane-1-carboxylate], the EC50 in test [1] is over 20000 nM; in test [2], 224 nM; in test [3], 57.5 nM; in test [4] it was over 20000 nM. Also, the Emax was 3% in test [1], 104% in test [2], 132% in test [3] and 33% in test [4].
Turning to `CCOC(=O)N1CCCC(N2CCC(C(=O)NCC3CCC3)CC2)CC1` (stereo not shown) [Example 11, ethyl 4-(4-((cyclobutylmethyl)carbamoyl)piperidin-1-yl)azepane-1-carboxylate], the EC50 is over 20000 nM in test [1], 427 nM in test [2], 60.3 nM in test [3] and over 20000 nM in test [4]. The Emax in test [1] is 7%; in test [2], 67%; in test [3], 117%; in test [4], 11%.
For the molecule `CCOC(=O)N1CCCC(N2CCC(C(=O)N(CC)CC3CC3)CC2)CC1` (stereo not shown) [Example 26, ethyl 4-(4-((cyclopropylmethyl)(ethyl)carbamoyl)piperidin-1-yl)azepane-1-carboxylate], the EC50 in test [1] was over 20000 nM; in test [2], 309 nM; in test [3] it was 447 nM; in test [4], over 20000 nM. Moreover, the maximum response (Emax) in test [1] is 7%; in test [2], 51%; in test [3], 95%; in test [4] it was 0%.

These data come from US10973832B2, “Muscarinic M1 receptor agonists” (Heptares Therapeutics Limited, priority 2011, dated 2021).
